Values belong to the compound of their own block, whether it stands above or below them.
Columns and labels:
[1] = target: T1, EHMT1 (Homo sapiens, UniProt Q9H9B1); experiment: EHMT1 PEP (EHMT1 peptide enzyme assay); assay type: biochemical; settings: peptide substrate enzyme assay
T1 sequence (Q9H9B1 1-1298): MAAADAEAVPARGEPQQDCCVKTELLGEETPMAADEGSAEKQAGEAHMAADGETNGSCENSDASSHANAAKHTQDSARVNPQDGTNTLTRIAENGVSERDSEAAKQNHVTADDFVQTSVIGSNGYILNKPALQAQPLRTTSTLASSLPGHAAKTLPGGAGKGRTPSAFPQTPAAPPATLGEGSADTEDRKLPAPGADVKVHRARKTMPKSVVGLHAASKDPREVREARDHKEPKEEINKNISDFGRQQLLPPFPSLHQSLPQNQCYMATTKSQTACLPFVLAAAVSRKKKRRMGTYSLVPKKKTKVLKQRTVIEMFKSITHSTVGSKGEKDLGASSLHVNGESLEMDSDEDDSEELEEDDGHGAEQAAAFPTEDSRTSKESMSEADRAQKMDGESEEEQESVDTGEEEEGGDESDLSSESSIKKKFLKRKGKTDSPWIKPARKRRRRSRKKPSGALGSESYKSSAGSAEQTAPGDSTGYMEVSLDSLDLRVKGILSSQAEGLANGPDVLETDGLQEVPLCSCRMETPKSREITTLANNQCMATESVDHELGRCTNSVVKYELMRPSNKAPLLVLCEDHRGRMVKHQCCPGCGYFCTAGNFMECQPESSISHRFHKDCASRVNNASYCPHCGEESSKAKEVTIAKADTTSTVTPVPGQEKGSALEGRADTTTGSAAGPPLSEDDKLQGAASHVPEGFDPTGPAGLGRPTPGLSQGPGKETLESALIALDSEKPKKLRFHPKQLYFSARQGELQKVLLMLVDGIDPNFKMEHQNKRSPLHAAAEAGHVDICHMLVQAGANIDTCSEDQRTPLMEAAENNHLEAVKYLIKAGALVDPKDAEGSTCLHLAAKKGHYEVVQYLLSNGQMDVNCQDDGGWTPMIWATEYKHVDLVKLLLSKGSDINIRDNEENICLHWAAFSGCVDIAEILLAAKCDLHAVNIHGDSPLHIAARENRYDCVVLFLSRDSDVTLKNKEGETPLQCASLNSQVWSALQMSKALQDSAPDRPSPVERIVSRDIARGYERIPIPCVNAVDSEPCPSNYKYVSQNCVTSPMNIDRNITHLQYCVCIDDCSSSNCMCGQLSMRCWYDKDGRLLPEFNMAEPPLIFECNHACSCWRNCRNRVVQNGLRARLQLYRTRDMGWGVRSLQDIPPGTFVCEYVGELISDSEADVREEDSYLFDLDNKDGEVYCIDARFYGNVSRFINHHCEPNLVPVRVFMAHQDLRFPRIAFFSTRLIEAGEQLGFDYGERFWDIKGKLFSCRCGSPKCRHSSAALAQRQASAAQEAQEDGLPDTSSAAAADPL

[2] = system: H3K9me2 in MDA-MB-231 cells; experiment: MDA-MB-231 H3K9me2 in-cell western assay; assay type: cell-based; settings: Homo sapiens, read-out: EHMT2 ICW (IC50 μM)
Summary of the method: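 MDA-MB-231 cells (3,000/well) exposed to compound for two consecutive 48 h periods at 37 °C, then fixed and stained for H3K9me2, with DRAQ5 as DNA stain and infrared read at 700/800 nm. Percent inhibition was set between DMSO and UNC0638 control wells. IC50 came from triplicate dose–response fits with a four-parameter model, top 100%, bottom 0%.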

SMILES: CNc1cc(C)nc(Nc2ccc(OC)c(-c3[nH]c4cnccc4c3C#N)c2)n1 [Compound 291]
IC50 [1]: 1 to 10 µM | IC50 [2]: 1 to 10 µM

SMILES: CNc1cc(C)nc(Nc2ccc(OC)c(-c3cc4[nH]ccc4c(C#N)n3)c2)n1 [Compound 292]
IC50 [1]: < 0.1 µM | IC50 [2]: 0.1 to 1 µM

SMILES: CNc1cc(C)nc(Nc2ccc(OC)c(-c3cc4[nH]ccc4c(CNC(C)=O)n3)c2)n1 [Compound 293]
IC50 [1]: < 0.1 µM | IC50 [2]: 1 to 10 µM

SMILES: CNC1=Nc2cc(-c3cc4[nH]ccc4nc3C)c(OC)cc2C12CCC2 [Compound 300]
IC50 [1]: < 0.1 µM | IC50 [2]: 0.1 to 1 µM

SMILES: COc1cc(NC2CCNC2)ccc1-c1[nH]c2cnccc2c1C (centres unmarked) [Compound 305]
IC50 [1]: 1 to 10 µM | IC50 [2]: > 10 µM

SMILES: CNC1=Nc2cc(-c3cc4[nH]ccc4c(C(N)=O)n3)c(OC)cc2C12CCC2 [Compound 308]
IC50 [1]: 0.1 to 1 µM | IC50 [2]: > 10 µM

SMILES: COc1cc2c(cc1-c1cc3[nH]ccc3cn1)N=C(NCC(N)=O)C21CCC1 [Compound 309]
IC50 [1]: 0.1 to 1 µM | IC50 [2]: > 10 µM

SMILES: COc1cc(NC2CCNCC2)ccc1-c1[nH]c2cnccc2c1C [Compound 310]
IC50 [1]: 1 to 10 µM | IC50 [2]: > 10 µM

SMILES: CNc1cc(C)nc(Nc2cnc(C)c(-c3cc4ccncc4[nH]3)c2)n1 [Compound 311]
IC50 [1]: > 10 µM | IC50 [2]: > 10 µM

SMILES: CNCc1ccnc(-c2cc(Nc3nc(C)cc(NC)n3)ccc2OC)c1 [Compound 313]
IC50 [1]: 0.1 to 1 µM | IC50 [2]: 1 to 10 µM

SMILES: CNc1cc(C)nc(Nc2ccc(OC)c(-c3[nH]c4cnccc4c3CNC(C)=O)c2)n1 [Compound 316]
IC50 [1]: < 0.1 µM | IC50 [2]: 0.1 to 1 µM

SMILES: CNCc1cnn(-c2c(OC)ccc(Nc3nc(C)cc(NC)n3)c2F)c1 [Compound 317, N2-(2-fluoro-4-methoxy-3-(4-((methylamino)methyl)-1H-pyrazol-1-yl)phenyl)-N4,6-dimethylpyrimidine-2,4-diamine]
IC50 [1]: < 0.1 µM | IC50 [2]: < 0.1 µM

SMILES: CNC1=Nc2cc(-n3cc(C4CCCN4)cn3)c(OC)cc2C12CCC2 (centres unmarked) [Compound 322]
IC50 [1]: < 0.1 µM | IC50 [2]: 0.1 to 1 µM

SMILES: CNCc1cnn(-c2cc(Nc3nc(C)cc(NC)n3)ccc2C(F)(F)F)c1 [Compound 325]
IC50 [1]: < 0.1 µM | IC50 [2]: 0.1 to 1 µM

SMILES: CNCc1cnn(-c2c(Cl)ccc(Nc3nc(C)cc(NC)n3)c2F)c1 [Compound 328]
IC50 [1]: < 0.1 µM | IC50 [2]: < 0.1 µM

SMILES: CNCc1cnn(-c2c(F)ccc(Nc3nc(C)cc(NC)n3)c2Cl)c1 [Compound 329]
IC50 [1]: < 0.1 µM | IC50 [2]: < 0.1 µM

SMILES: CNc1cc(C)nc(Nc2ccc(OC)c(-c3cc4[nH]cc(C)c4cn3)c2)n1 [Compound 386]
IC50 [1]: < 0.1 µM | IC50 [2]: < 0.1 µM

Results, then the compound that gave them:

IC50 [1]: < 0.1 µM | IC50 [2]: 1 to 10 µM
SMILES: CNC1=Nc2cc(-c3cnc4cc[nH]c4c3)c(OC)cc2C12CCC2 [Compound 294]

IC50 [1]: 0.1 to 1 µM | IC50 [2]: 1 to 10 µM
SMILES: CNc1nc2cc(-c3cnc4cc[nH]c4c3)c(OC)cc2n1C [Compound 295]

IC50 [1]: < 0.1 µM | IC50 [2]: 1 to 10 µM
SMILES: CNc1cc(C)nc(Nc2ccc(OC)c(-c3cc4[nH]ccc4c(CN)n3)c2)n1 [Compound 296]

IC50 [1]: 1 to 10 µM | IC50 [2]: > 10 µM
SMILES: CNc1cc(C)nc(Nc2ccc(C)c(C(=O)Nc3cn(C)nn3)c2)n1 [Compound 299]

IC50 [1]: > 10 µM | IC50 [2]: > 10 µM
SMILES: CNc1cc(C)nc(Nc2ccc(C)c(C(=O)Nc3cn(C)cn3)c2)n1 [Compound 302]

IC50 [1]: 0.1 to 1 µM | IC50 [2]: > 10 µM
SMILES: CNc1nc2cc(-c3[nH]c4cnccc4c3C)c(OC)cc2n1C [Compound 304]

IC50 [1]: 1 to 10 µM | IC50 [2]: > 10 µM
SMILES: CNc1cc(C)nc(Nc2ccc(OC)c(-c3nccc(NC)n3)c2)n1 [Compound 306]

IC50 [1]: < 0.1 µM | IC50 [2]: 0.1 to 1 µM
SMILES: CNCc1cnn(-c2c(F)ccc(Nc3nc(C)cc(NC)n3)c2F)c1 [Compound 307]

IC50 [1]: < 0.1 µM | IC50 [2]: 0.1 to 1 µM
SMILES: CNC1=Nc2cc(-n3cc(CN4CCC4)cn3)c(OC)cc2C12CCC2 [Compound 314]

IC50 [1]: 0.1 to 1 µM | IC50 [2]: 1 to 10 µM
SMILES: CNc1cc(C)nc(Nc2ccc(F)c(-n3cc(CN4CCC4)cn3)c2F)n1 [Compound 315]

IC50 [1]: 0.1 to 1 µM | IC50 [2]: 0.1 to 1 µM
SMILES: CNCc1cnn(-c2c(F)ccc(Nc3nc(C)cc(NC)n3)c2OC)c1 [Compound 318]

IC50 [1]: < 0.1 µM | IC50 [2]: < 0.1 µM
SMILES: CNCc1cnn(-c2cc(Nc3nc(C)cc(NC)n3)ccc2Br)c1 [Compound 319]

IC50 [1]: < 0.1 µM | IC50 [2]: 0.1 to 1 µM
SMILES: CCc1ccc(Nc2nc(C)cc(NC)n2)cc1-n1cc(CNC)cn1 [Compound 320]

IC50 [1]: < 0.1 µM | IC50 [2]: < 0.1 µM
SMILES: CNc1cc(C)nc(Nc2ccc(OC)c(-n3cc(C4CCCN4)cn3)c2)n1 (centres unmarked) [Compound 321]

IC50 [1]: < 0.1 µM | IC50 [2]: 0.1 to 1 µM
SMILES: CNCc1cn(-c2cc(Nc3nc(C)cc(NC)n3)ccc2OC)nc1F [Compound 323]

IC50 [1]: 0.1 to 1 µM | IC50 [2]: 1 to 10 µM
SMILES: CNCc1cc(-c2cc(Nc3nc(C)cc(NC)n3)ccc2OC)on1 [Compound 324]

IC50 [1]: < 0.1 µM | IC50 [2]: < 0.1 µM
SMILES: CNC1=Nc2cc(-n3cc(C4CCCN4)cn3)c(Cl)cc2C12CCC2 (centres unmarked) [Compound 326]

IC50 [1]: < 0.1 µM | IC50 [2]: < 0.1 µM
SMILES: CNCc1cnn(-c2c(Cl)ccc(Nc3nc(C)cc(NC)n3)c2Cl)c1 [Compound 327]

IC50 [1]: < 0.1 µM | IC50 [2]: < 0.1 µM
SMILES: CNc1cc(C)nc(Nc2ccc(Cl)c(-n3cc(C4CCCN4)cn3)c2)n1 (centres unmarked) [Compound 330]

IC50 [1]: < 0.1 µM | IC50 [2]: 0.1 to 1 µM
SMILES: CNCc1cc(-c2cc(Nc3nc(C)cc(NC)n3)ccc2OC)no1 [Compound 331]
